Results reported in US20250346643A1, “TROPOMYOSIN KINASE RECEPTOR (TRK) LIGANDS AS THERAPEUTICS TO SUPPORT LIVER REGENERATION” (Vanderbilt University, priority 2024, published 2025).

Legend:
[1] = system: P-TRKA Tyr674/675, P-TRKB Tyr706/707; assay: Western blot of phosphorylated TRK in HepG2 cell lysates; type: cell-based, human; conditions: HepG2, NTF3 (FIG. 9G-H)
Protocol: Human HepG2 and mouse AML12 cells were grown in 6-well plates. […] Lyophilized NTF3 was solubilized with sterile filtered PBS supplemented with 0.1% BSA, aliquoted and stored at −80° C. until use. […] Cell lysates were sonicated and centrifuged for 10 min at 18,800×g. Protein concentration of supernatants were determined by Direct Detect Spectrophotometer (MilliporeSigma, Burlington, MA).
For immunoblot analysis, 30-50 μg of protein diluted in LSD sample buffer (Invitrogen, Waltham, MA) were analyzed per SDS-PAGE (NuPAGE™, Invitrogen, Waltham, MA) using MOPS buffer or MES buffer (Invitrogen, Waltham, MA). Gels were stained with Coomassie (Bio-Safe Coomassie G-250 Stain, Bio-Rad, Hercules, CA) and transferred onto PVDF membranes using semi-dry blotting (Trans-Blot SD, Bio-Rad, Hercules, CA). Images were visualized on an Amersham™ Imager 680 (Cytiva, Marlborough, MA).

[2] = system: HSC-depleted mice (liver); assay: Treatment of HSC-depleted mice with recombinant NTF3; type: in vivo, mouse
Protocol: T cell isolation and adoptive transfer. CD8+ T cells were isolated from spleen and lymph nodes (brachial, inguinal, axillar, submandibular, superficial cervical and mesenteric) of Jedi and controls. Spleens and lymph nodes were collected in ice cold T cell media (RPMI [Gibco® 11875-093] supplemented by 10% FBS, 2 mM L-glutamine [Thermo Fisher Scientific, Waltham, MA; 25030-081], 1% MEM nonessential amino acids [Thermo Fisher Scientific, Waltham, MA; 11140050] and 1 mM sodium pyruvate [Thermo Fisher Scientific, Waltham, MA; 11360-070]). Spleen and lymph nodes were mechanically homogenized and filtered through a 70 μm cell strainer (Falcon®). The cell suspension was centrifuged for 10 min at 4° C., 300 g. Red blood cell (RBC) lysis was performed with RBC buffer (Thermo Fisher Scientific, Waltham, MA; A10492). Cells were then washed with T cell media, filtered through a 70 μm cell strainer and centrifuged for 10 min at 4° C., 300 g. The cell pellet was then resuspended in flow buffer (PBS, pH 7.4, 2 mM EDTA, 0.05% BSA) and CD8+ T cells enriched using the mouse CD8+ T cell isolation kit (STEMCELL technologies, Vancouver, Canada; 19853A) according to the manufacturer's instructions. Enriched CD8+ T cells were centrifuged for 10 min at 4° C., 300 g, and resuspended in PBS. Mice with less than 25 g body weight were injected with up to 12 million Jedi T cells and mice greater than 25 g body weight were injected by tail vein injection with 18 million Jedi T cells. Control mice were injected with either T cells from H-2K^d mice or with vehicle only. Mice were not injected with lentiviral GFP particles as previously described (Agudo et al., Nat Biotechnol. 2015; 33(12): 1287-1292; Agudo et al., 2018; 48(2): 271-285.e5) to avoid lentiviral GFP-expression of other cells such as hepatocytes.
Treatment with recombinant NTF3. Four months old mice were injected via tail vein for 4 consecutive days with recombinant NTF3 (STEMCELL technology, Vancouver, Canada; cat. 78074, lots 1000070683, 1000077434) diluted in sterile 0.9% saline (0.9% NaCl) or vehicle only. Mice were weighed daily and recombinant NTF3 given at 20 ng/g body weight or 100 ng/g body weight, respectively. Lyophilized NTF3 was solubilized in 0.1% BSA/PBS (bovine serum albumin, Sigma-Aldrich, St. Louis, MO; A3059) and stored at −80° C. until use.
Immunohistochemistry. For immunohistochemistry, formalin-fixed paraffin embedded sections were cut at 4 μm thickness and slides incubated at 65° C. for 30 min. Slides were deparaffinized in Histo-Clear® (National Diagnostics, Charlotte, NC; HS2001GLL) and rehydrated by an ethanol gradient. Heat antigen retrieval was performed in 10 mM sodium citrate (pH 6.0) in a pressure cooker (Cuisinart®, CPC-600C), 20 min at high-pressure, natural pressure release for 30 min, and cooled at room temperature (i.e., about 20° C. to about 22° C.) for 30 min. Endogenous peroxidase quenching was performed with 1.5% hydrogen peroxide (Sigma-Aldrich, St. Louis, MO; H1009) for 20 min, and slides washed twice in phosphate buffered saline (PBS) twice. Blocking was performed for 30 min with Protein Block, Serum-free (Agilent, Santa Clara, CA; X090930-2). The primary antibody (TABLE 1) was diluted in antibody diluent (Agilent, Santa Clara, CA; S080983-2) and applied to the slides in a wet chamber overnight at 4° C. After 2 washes in PBS, slides were incubated with the appropriate secondary antibody (TABLE 1) for 30 min followed by two washes in PBS. […] The same reveal time was then used on all experimental slides. Slides were stained with hematoxylin (Sigma-Aldrich, St. Louis, MO; GHS332) for 30 sec, washed gently in lukewarm tap water for 5 min, and washed twice in distilled water, followed by two washes in phosphate buffered saline (PBS, pH 7.4). Slides were washed in increasing ethanol/water gradients, followed by three washes in Histo-Clear®. […]

NTF3: neurotrophin-3, recombinant protein; HSC-derived hepatocyte mitogen, ligand of TRKA, TRKB, TRKC
TRK phosphorylation (P-TRKA Tyr674/675, P-TRKB Tyr706/707) [1]: Increased TRK phosphorylation | IGFBP2 expression in hepatocytes ([2]; HSC-ablated mice, NTF3): only increased CCND1 but not IGFBP2 expression | liver-to-body weight ratio ([2]; HSC-depleted mice, NTF3 20 ng/g or 100 ng/g body weight, tail vein, 4 consecutive days (FIG. 10C)): dose-dependently increased | liver-to-body weight ratio, higher dose group ([2]; HSC-depleted mice, NTF3 100 ng/g body weight, 4 consecutive days): significant increase | number of CCND1+HNF4a+ nuclei (multiplex immunohistochemistry) ([2]; HSC-depleted mice, NTF3 20 or 100 ng/g (FIG. 10E-F)): dose-dependently increased | nuclear CCND1 in hepatocytes in the midlobular region (staining) ([2]; HSC-depleted mice, NTF3 vs vehicle (FIG. 10D)): increased nuclear CCND1 | Ki67+ hepatocytes ([2]; HSC-depleted mice, NTF3 vs vehicle (FIG. 10G-H)): increase | PCNA in whole liver lysates (Western blotting) ([2]; HSC-depleted mice, NTF3 vs vehicle (FIG. 10I, 11B)): increased | CCND1 in whole liver lysates (Western blotting) ([2]; HSC-depleted mice, NTF3 vs vehicle (FIG. 10I, 11C)): increased
